Results reported in US5407932A, “Quinolone derivatives and antibacterial agents containing the same” (Wakunaga Seiyaku Kabushiki Kaisha, priority 1989, dated 1995).
In brackets after ≈: the same amount, converted by molar mass.

Experiments:
Experiment in all cases: Minimum inhibitory concentration, standard method of the Japan Society of Chemotherapy
Type in all cases: cell-based
[1] = system: E. coli NIH JC-2 (IFO 12734); settings: Escherichia coli, IFO12734
Description: (§1) With respect to certain representative compounds among the compounds [I] of the present invention, their minimum inhibitory concentrations (MIC; μg/ml) were measured in accordance with the standard method established by the Japan Society of Chemotherapy [CHEMOTHERAPY, 29(1), 76-79 (1981)]. The results are summarized in Table 1, in which the compound numbers are as shown in examples.

P. aeruginosa (IFO 3445) = settings: Pseudomonas aeruginosa, IFO3445
Description: as §1

[2] = system: S. aureus 209 P (IFO 12732); settings: Staphylococcus aureus, IFO12732
Description: as §1

SMILES	MIC [1]	MIC (P. aeruginosa (IFO 3445))	MIC [2]
O=C(O)c1cn(C2COC2)c2c(F)c(N3CCC(O)C3)c(F)cc2c1=O (stereo not drawn) [Compound 16]	0.39 µg/mL (≈ 1.06 µM)	1.56 µg/mL (≈ 4.26 µM)	0.78 µg/mL (≈ 2.13 µM)
CC1CN(c2c(F)cc3c(=O)c(C(=O)O)cn(C4COC4)c3c2F)CC(C)N1 (stereo not drawn) [Compound 14]	0.2 µg/mL (≈ 0.508 µM)	3.13 µg/mL (≈ 7.96 µM)	3.13 µg/mL (≈ 7.96 µM)
COc1c(N2CCNCC2)c(F)cc2c(=O)c(C(=O)O)cn(C3COC3)c12 [Compound 81]	0.78 µg/mL (≈ 2.07 µM)	3.13 µg/mL (≈ 8.29 µM)	0.78 µg/mL (≈ 2.07 µM)
O=C(O)c1cn(C2COC2)c2c(F)c(N3Cc4ccccc4C3)c(F)cc2c1=O [Compound 9]	0.39 µg/mL (≈ 0.979 µM)	3.13 µg/mL (≈ 7.86 µM)	0.2 µg/mL (≈ 0.502 µM)
O=C(O)c1cn(C2COC2)c2c(F)c(N3CCCC3)c(F)cc2c1=O [Compound 4, 6,8-Difluoro-1-(oxetan-3-yl)-7-(pyrrolidin-1-yl)-1,4-dihydro-4-oxoquinoline-3-carboxylic acid]	0.39 µg/mL (≈ 1.11 µM)	1.56 µg/mL (≈ 4.45 µM)	0.2 µg/mL (≈ 0.571 µM)
NC1CN(c2cc3c(cc2F)c(=O)c(C(=O)O)cn3C2COC2)C1 [Compound 41]	0.78 µg/mL (≈ 2.34 µM)	6.25 µg/mL (≈ 18.8 µM)	12.5 µg/mL (≈ 37.5 µM)
O=C(O)c1cn(C2COC2)c2c(F)c(N3CCOCC3)c(F)cc2c1=O [Compound 6]	0.78 µg/mL (≈ 2.13 µM)	6.25 µg/mL (≈ 17.1 µM)	0.78 µg/mL (≈ 2.13 µM)
NCC1CN(c2c(F)cc3c(=O)c(C(=O)O)cn(C4COC4)c3c2F)CCO1 (stereo not drawn) [Compound 22]	6.25 µg/mL (≈ 15.8 µM)	> 25 µg/mL	0.78 µg/mL (≈ 1.97 µM)
Nc1c(F)c(N2CCCC2)c(F)c2c1c(=O)c(C(=O)O)cn2C1COC1 [Compound 27, 5-Amino-6,8-difluoro-1-(oxetan-3-yl)-7-(pyrrolidin-1-yl)-1,4-dihydro-4-oxoquinoline-3-carboxylic acid]	0.39 µg/mL (≈ 1.07 µM)	3.13 µg/mL (≈ 8.57 µM)	0.2 µg/mL (≈ 0.547 µM)
O=C(O)c1cn(C2COC2)c2c(F)c(N3CCSCC3)c(F)cc2c1=O [Compound 7]	0.78 µg/mL (≈ 2.04 µM)	3.13 µg/mL (≈ 8.19 µM)	0.39 µg/mL (≈ 1.02 µM)
Nc1c(F)c(N2CCSCC2)c(F)c2c1c(=O)c(C(=O)O)cn2C1COC1 [Compound 28]	0.78 µg/mL (≈ 1.96 µM)	6.25 µg/mL (≈ 15.7 µM)	0.78 µg/mL (≈ 1.96 µM)
NC1CCN(c2cc3c(cc2F)c(=O)c(C(=O)O)cn3C2COC2)C1 (stereo not drawn) [Compound 37]	0.39 µg/mL (≈ 1.12 µM)	1.56 µg/mL (≈ 4.49 µM)	1.56 µg/mL (≈ 4.49 µM)
O=C(O)c1cn(C2COC2)c2cc(N3CCNCC3)c(F)cc2c1=O [Compound 36]	0.39 µg/mL (≈ 1.12 µM)	3.13 µg/mL (≈ 9.01 µM)	3.13 µg/mL (≈ 9.01 µM)
CN1CCN(c2cc3c(cc2F)c(=O)c(C(=O)O)cn3C2COC2)CC1 [Compound 35, 6-Fluoro-7-(4-methylpiperazin-1-yl)-1-(oxetan-3-yl)-1,4-dihydro-4-oxoquinoline-3-carboxylic acid]	0.2 µg/mL (≈ 0.553 µM)	3.13 µg/mL (≈ 8.66 µM)	1.56 µg/mL (≈ 4.32 µM)
O=C(O)c1cn(C2COC2)c2c(F)c(N3CCC(O)CC3)c(F)cc2c1=O [Compound 15]	0.78 µg/mL (≈ 2.05 µM)	6.25 µg/mL (≈ 16.4 µM)	0.39 µg/mL (≈ 1.03 µM)
CN(C)C1CCN(c2c(F)cc3c(=O)c(C(=O)O)cn(C4COC4)c3c2F)C1 (stereo not drawn) [Compound 19]	0.2 µg/mL (≈ 0.508 µM)	3.13 µg/mL (≈ 7.96 µM)	1.56 µg/mL (≈ 3.97 µM)
O=C(O)c1cn(C2COC2)c2c(F)c(N3CC=CC3)c(F)cc2c1=O [Compound 5]	0.39 µg/mL (≈ 1.12 µM)	6.25 µg/mL (≈ 17.9 µM)	0.39 µg/mL (≈ 1.12 µM)

Now from value to compound:

MIC [1]	MIC (P. aeruginosa (IFO 3445))	MIC [2]	SMILES
0.78 µg/mL (≈ 2.24 µM)	3.13 µg/mL (≈ 8.99 µM)	1.56 µg/mL (≈ 4.48 µM)	O=C(O)c1cn(C2COC2)c2cc(N3CCC(O)C3)c(F)cc2c1=O (stereo not drawn) [Compound 42]
1.56 µg/mL (≈ 3.72 µM)	25 µg/mL (≈ 59.6 µM)	0.1 µg/mL (≈ 0.238 µM)	CCNCC1CCN(c2c(F)cc3c(=O)c(C(=O)O)cn(C4COC4)c3c2OC)C1 (stereo not drawn) [Compound 79]
0.78 µg/mL (≈ 1.91 µM)	3.13 µg/mL (≈ 7.66 µM)	0.1 µg/mL (≈ 0.245 µM)	CNCC1CCN(c2c(F)c(N)c3c(=O)c(C(=O)O)cn(C4COC4)c3c2F)C1 (stereo not drawn) [Compound 52]
0.78 µg/mL (≈ 1.97 µM)	6.25 µg/mL (≈ 15.8 µM)	3.13 µg/mL (≈ 7.9 µM)	Nc1c(F)c(N2CCN(O)CC2)c(F)c2c1c(=O)c(C(=O)O)cn2C1COC1 [Compound 107]
0.1 µg/mL (≈ 0.264 µM)	0.78 µg/mL (≈ 2.06 µM)	0.39 µg/mL (≈ 1.03 µM)	C[C@H]1CN(c2c(F)cc3c(=O)c(C(=O)O)cn(C4COC4)c3c2F)C[C@H]1N (relative stereo) [Compound 102]
1.56 µg/mL (≈ 4.14 µM)	6.25 µg/mL (≈ 16.6 µM)	0.39 µg/mL (≈ 1.04 µM)	CNCC1CCN(c2nc3c(cc2F)c(=O)c(C(=O)O)cn3C2COC2)C1 (stereo not drawn) [Compound 70]
0.39 µg/mL	1.56 µg/mL	0.78 µg/mL	C[C@@H]1CN(c2c(F)cc3c(=O)c(C(=O)O)cn(C4COC4)c3c2F)C[C@H]1N.O=C(O)C(F)(F)F (relative stereo) [Compound 97, 7-(Trans-3-amino-4-methylpyrrolidin-1-yl)-6,8-difluoro-1-(oxetan-3-yl)-1,4-dihydro-4-oxoquinoline-3-carboxylic acid trifluoroacetic acid salt]
0.78 µg/mL (≈ 1.98 µM)	3.13 µg/mL (≈ 7.96 µM)	1.56 µg/mL (≈ 3.97 µM)	CN[C@@H]1CN(c2c(F)cc3c(=O)c(C(=O)O)cn(C4COC4)c3c2F)C[C@@H]1C (relative stereo) [Compound 93]
0.1 µg/mL (≈ 0.245 µM)	1.56 µg/mL (≈ 3.82 µM)	0.39 µg/mL (≈ 0.955 µM)	CN[C@@H]1CN(c2c(F)c(N)c3c(=O)c(C(=O)O)cn(C4COC4)c3c2F)C[C@H]1C (relative stereo) [Compound 92]
0.39 µg/mL (≈ 0.95 µM)	3.13 µg/mL (≈ 7.63 µM)	1.56 µg/mL (≈ 3.8 µM)	CO[C@@H]1CN(c2c(F)c(N)c3c(=O)c(C(=O)O)cn(C4COC4)c3c2F)C[C@H]1N (relative stereo) [Compound 86]
0.78 µg/mL (≈ 2.22 µM)	6.25 µg/mL (≈ 17.8 µM)	0.78 µg/mL (≈ 2.22 µM)	O=C(O)c1cn(C2COC2)c2nc(N3CCSC3)c(F)cc2c1=O [Compound 73]
0.39 µg/mL (≈ 1.17 µM)	3.13 µg/mL (≈ 9.39 µM)	0.2 µg/mL (≈ 0.6 µM)	O=C(O)c1cn(C2COC2)c2nc(N3CCCC3)c(F)cc2c1=O [Compound 72]
0.78 µg/mL (≈ 1.91 µM)	3.13 µg/mL (≈ 7.66 µM)	1.56 µg/mL (≈ 3.82 µM)	CCNC1CCN(c2c(F)c(N)c3c(=O)c(C(=O)O)cn(C4COC4)c3c2F)C1 (stereo not drawn) [Compound 51]
0.78 µg/mL (≈ 1.91 µM)	6.25 µg/mL (≈ 15.3 µM)	1.56 µg/mL (≈ 3.83 µM)	N=CNC1CCN(c2c(F)c(N)c3c(=O)c(C(=O)O)cn(C4COC4)c3c2F)C1 (stereo not drawn) [Compound 110]
0.1 µg/mL (≈ 0.236 µM)	0.78 µg/mL (≈ 1.84 µM)	0.39 µg/mL (≈ 0.921 µM)	CN(C)NC1CCN(c2c(F)c(N)c3c(=O)c(C(=O)O)cn(C4COC4)c3c2F)C1 (stereo not drawn) [Compound 96]
0.78 µg/mL (≈ 2.13 µM)	3.13 µg/mL (≈ 8.54 µM)	1.56 µg/mL (≈ 4.26 µM)	Nc1c(F)c(N2CC(N)C2)c(F)c2c1c(=O)c(C(=O)O)cn2C1COC1 [Compound 49]
0.39 µg/mL (≈ 1.04 µM)	1.56 µg/mL (≈ 4.14 µM)	3.13 µg/mL (≈ 8.32 µM)	CCNC1CCN(c2nc3c(cc2F)c(=O)c(C(=O)O)cn3C2COC2)C1 (stereo not drawn) [Compound 69]
0.39 µg/mL (≈ 1.03 µM)	1.56 µg/mL (≈ 4.11 µM)	1.56 µg/mL (≈ 4.11 µM)	CNC1CCN(c2c(F)cc3c(=O)c(C(=O)O)cn(C4COC4)c3c2F)C1 (stereo not drawn) [Compound 44, 6,8-Difluoro-7-(3-methylaminopyrrolidin-1-yl)-1-(oxetan-3-yl)-1,4-dihydro-4-oxoquinoline-3-carboxylic acid]
0.2 µg/mL (≈ 0.473 µM)	3.13 µg/mL (≈ 7.41 µM)	0.1 µg/mL (≈ 0.237 µM)	CCNCC1CCN(c2c(F)c(N)c3c(=O)c(C(=O)O)cn(C4COC4)c3c2F)C1 (stereo not drawn) [Compound 53]
0.2 µg/mL (≈ 0.508 µM)	1.56 µg/mL (≈ 3.97 µM)	0.78 µg/mL (≈ 1.98 µM)	CN[C@@H]1CN(c2c(F)cc3c(=O)c(C(=O)O)cn(C4COC4)c3c2F)C[C@H]1C (relative stereo) [Compound 91]
